“And” between values parts separate entries of the source, which are not always exact repeats. Equal values may be shown once. “Also recorded” adds a separate entry of the source. Read-outs that look alike come from different tables or passages of the source.
Assays:
[1] = Dynamic vapour sorption (DVS) hygroscopicity; format: physicochemical; conditions: for hygroscopicity (classification as per the European Pharmacopoeia) / water uptake: 25° C./80% RH; for form by HT-XRPD after the DVS cycle: sorption-desorption-sorption 40-95-0-45% RH
Method: Analyses were performed on a DVS-1 system from Surface Measurement Systems (London, UK). Weight equilibration per step was set at dm/dt<0.002 for a minimum of 1 hour or a maximum of 6 hours. The sample was subjected to a sorption-desorption-sorption cycle running from 40 to 95 to 0 to 45% RH, at a constant temperature of 25° C. One cycle consisted of 20 steps, those between 0 and 90% RH were taken in 10% RH each. Afterwards the sample was measured by HT-XRPD.
Forms HCl2 and HCl3 were subjected to DVS measurements to determine the hygroscopicity of these two forms. The material initially took up water slowly with increasing relative humidity (RH) up to about 90% RH. The change in mass was approximately 3.3%, corresponding to about 1 molecule of water per molecule of PN6047. […] The material was then gradually dried from 95 to 0% RH in steps of 10% RH. The corresponding mass change upon drying was different than the initial mass increase upon hydration. Finally, from 0 to 40% RH, the water uptake proceeded in the same way as in the preceding dehydration step. […] It is believed that the uptake of the 2 additional molecules of water may have led to a change from form HCl2 to form HCl3.
The material gradually took up water with increasing relative humidity (RH) up to 95% RH. […] The material was then gradually dried from 95 to 0% RH in steps of 10% RH. The corresponding mass change upon drying was approximately the same as the initial mass increase upon hydration. Finally, from 0 to 40% RH, the water uptake proceeded in the same way as the preceding dehydration step.

[2] = Incubation at high humidity or under vacuum, form by XRPD; format: physicochemical; conditions: 2 days
Method: To further understand the hygroscopic nature of form HCl2, a sample of the material was incubated at 85% RH at room temperature for 2 days.
A sample of Form HCl3 was further incubated at 50° C./1 mbar for 2 days to determine whether conversion to Form HCl2 would take place.

[3] = Solution stability study in saline (LCMS); format: physicochemical
Method: Experiments were performed in saline (0.9% NaCl in water). Two stock solutions of Form HCl2 in saline were prepared, one with a concentration of 10 mg/mL and one with a concentration of 100 mg/mL. The 10 mg/mL stock solution was prepared by dissolving 56 mg of material in 5 mL of saline. The 100 mg/mL stock solution was prepared by dissolving 196.2 mg of material in 1.75 mL saline. For each experiment involving 10 mg/mL, 0.5 mL of stock solution was transferred to an HPLC vial whereas for each experiment involving 100 mg/mL, 0.15 mL of stock solution was transferred to an HPLC vial. The HPLC vials were closed with a screw cap and placed in a Crystal16™ apparatus and incubated at different temperatures.
After the incubation time, the samples were diluted with acetonitrile/water 1:1 (v/v) and measured by LCMS to determine the API peak area.

[4] = Solid-state stability study (XRPD, TGA, LCMS); format: physicochemical; conditions: for LCMS API / TGA mass loss / XRPD: solid state
Method: The solid-state stability of Form HCl2 was determined by incubating samples of approximately 18 mg at different conditions (temperature and relative humidity). After 1 week and 4 weeks, the samples were analyzed by XRPD to determine the polymorphic form, by TGA to determine the mass loss upon heating and by LCMS to determine the API purity. The experimental details and results are described in Table 6.

[5] = Bioavailability study in rats; format: in vivo; conditions: male, Wistar, blood, rat, single dose, vs 1 mg/kg intravenous, read-out: Bioavailability (Fabs)
Method: Male Wistar rats were used. Six groups of four animals each were used. Two groups were administered a single intravenous dose of 1 mg/kg of the free base or the HCl2 salt, one group was administered a single oral dose of 3 mg/kg of the free base, and three groups were administered a single oral dose of 3, 10 or 50 mg/kg of the HCl2 salt. Blood samples were collected after 0.25, 0.5, 1, 2, 4, 6, 8 and 24 hours following intravenous administration, and after 0.083, 0.25, 0.5, 1, 2, 4, 6, 8 and 24 hours following oral administration. The samples were analyzed using an LC/MS/MS system. The bioavailability (Fabs) is shown in Table 7 and was calculated as follows: […]

[6] = Solubility in water at pH 7; format: physicochemical
Method: For instance, whereas the free base only sparingly dissolves in water at pH 7 (<1 mg/mL), Forms HCl2 and HCl3 are highly soluble in water at the same pH (>100 mg/mL). The higher solubility of the HCl salt allows continued investigation of the compound at higher concentrations, which is advantageous e.g. in toxicology studies. […] It is expected that the increased bioavailability (and thus the increased exposure) of the HCl salt may lead to an improved efficacy of PN6047 in the treatment of pain and other indications as mentioned herein. Possibly, the increased bioavailability may allow the HCl salt to be administered in substantially lower doses than the free base. The unexpected increase in bioavailability of the HCl salt may also enable the use of sustained release formulations of the compound.

CN(C)C(=O)c1ccc(C(=C2CCN(Cc3cncs3)CC2)c2cccc(C(N)=O)c2)cc1 [Form HCl2, 4-[(3-carbamoylphenyl)[1-(1,3-thiazol-5-ylmethyl)piperidin-4-ylidene]methyl]-N,N-dimethylbenzamide]
relative humidity at which the form absorbs water and transforms into Form HCl3 [1]: > 85 % RH | relative humidity up to which the form is believed stable [1]: up to 85 % RH | mass increase ([1]; DVS, 25° C., from 90 to 95% RH): 10.0% | change in mass ([1]; DVS, 25° C., increasing RH up to about 90% RH): approximately 3.3% | hygroscopicity (classification as per the European Pharmacopoeia) ([1]; DVS): moderate hygroscopicity | water uptake ([1]; DVS): approximately 2.2% | hygroscopicity (classification as per the European Pharmacopoeia) ([1]; DVS, listed as form HCl2): moderately hygroscopic | water uptake ([1]; DVS, listed as form HCl2): approximately 2.2% | form by HT-XRPD after the DVS cycle ([1]; 25° C., listed as form HCl2): conversion had taken place from form HCl2 to form HCl3 | form by XRPD after incubation ([2]; 85% RH, room temperature): conversion into form HCl3 had taken place | time chemically stable in saline [3]: up to 1 week | LCMS API ([3]; 10 mg/mL, 5° C., 3 d): 99.9 area % | LCMS API ([3]; 10 mg/mL, 5° C., 4 d): 99.9 area % | LCMS API ([3]; 10 mg/mL, 5° C., 7 d): 99.9 area % | LCMS API ([3]; 10 mg/mL, 25° C., 0 d): 99.9 area % | LCMS API ([3]; 10 mg/mL, 25° C., 3 d): 99.9 area % | LCMS API ([3]; 10 mg/mL, 25° C., 4 d): 99.9 area % | LCMS API ([3]; 10 mg/mL, 25° C., 7 d): 99.9 area % | LCMS API ([3]; 10 mg/mL, 40° C., 3 d): 99.9 area % | LCMS API ([3]; 10 mg/mL, 40° C., 4 d): 99.9 area % | LCMS API ([3]; 10 mg/mL, 40° C., 7 d): 99.9 area % | LCMS API ([3]; 100 mg/mL, 5° C., 3 d): 99.9 area % | LCMS API ([3]; 100 mg/mL, 5° C., 4 d): 99.9 area % | LCMS API ([3]; 100 mg/mL, 5° C., 7 d): 99.9 area % | LCMS API ([3]; 100 mg/mL, 25° C., 0 d): 99.9 area % | LCMS API ([3]; 100 mg/mL, 25° C., 3 d): 99.9 area % | LCMS API ([3]; 100 mg/mL, 25° C., 4 d): 99.9 area % | LCMS API ([3]; 100 mg/mL, 25° C., 7 d): 99.9 area % | LCMS API ([3]; 100 mg/mL, 40° C., 3 d): 99.9 area % | LCMS API ([3]; 100 mg/mL, 40° C., 4 d): 99.9 area % | LCMS API ([3]; 100 mg/mL, 40° C., 7 d): 100.0 area % | time physically stable ([4]; 25° C./60% RH, 40° C./75% RH and 60° C./38% RH): ≥ 4 weeks | LCMS API ([4]; 1 week, 25° C./60% RH): 100 area % | TGA mass loss ([4]; 1 week, 25° C./60% RH): 1.8 wt % | XRPD ([4]; 1 week, 25° C./60% RH): HCl2 | LCMS API ([4]; 1 week, 40° C./75% RH): 100 area % | TGA mass loss ([4]; 1 week, 40° C./75% RH): 1.9 wt % | XRPD ([4]; 1 week, 40° C./75% RH): HCl2 | LCMS API ([4]; 1 week, 60° C./38% RH): 100 area % | TGA mass loss ([4]; 1 week, 60° C./38% RH): 1.9 wt % | XRPD ([4]; 1 week, 60° C./38% RH): HCl2 | LCMS API ([4]; 4 weeks, 25° C./60% RH): 100 area % | TGA mass loss ([4]; 4 weeks, 25° C./60% RH): 1.5 wt % | XRPD ([4]; 4 weeks, 25° C./60% RH): HCl2 | LCMS API ([4]; 4 weeks, 40° C./75% RH): 100 area % | TGA mass loss ([4]; 4 weeks, 40° C./75% RH): 1.6 wt % | XRPD ([4]; 4 weeks, 40° C./75% RH): HCl2 | LCMS API ([4]; 4 weeks, 60° C./38% RH): 100 area % | TGA mass loss ([4]; 4 weeks, 60° C./38% RH): 1.9 wt % | XRPD ([4]; 4 weeks, 60° C./38% RH): HCl2 | LCMS API ([4]; incubation time 0): 100 area % | TGA mass loss ([4]; incubation time 0): 1.0 wt % | XRPD ([4]; incubation time 0): HCl2 | bioavailability ([5]; oral 3 mg/kg): 24% | bioavailability ([5]; oral 10 mg/kg): 35.5% | bioavailability ([5]; oral 50 mg/kg): 35% and 34.6%

CN(C)C(=O)c1ccc(C(=C2CCN(Cc3cncs3)CC2)c2cccc(C(N)=O)c2)cc1 [Form HCl3, 4-[(3-carbamoylphenyl)[1-(1,3-thiazol-5-ylmethyl)piperidin-4-ylidene]methyl]-N,N-dimethylbenzamide]
hygroscopicity (classification as per the European Pharmacopoeia) ([1]; DVS, listed as form HCl3): moderately hygroscopic | water uptake ([1]; DVS, listed as form HCl3): approximately 8.0% | form by HT-XRPD after the DVS cycle ([1]; 25° C., listed as form HCl3): form HCl3 was still present | form after drying ([2]; 50° C./1 mbar): poorly crystalline phase of Form HCl3; also recorded: less crystalline phase of Form HCl3

CN(C)C(=O)c1ccc(C(=C2CCN(Cc3cncs3)CC2)c2cccc(C(N)=O)c2)cc1 [Free base, 4-[(3-carbamoylphenyl)[1-(1,3-thiazol-5-ylmethyl)piperidin-4-ylidene]methyl]-N,N-dimethylbenzamide]
solubility in water [6]: < 1000 µg/mL | bioavailability ([5]; oral 3 mg/kg): 8%

Reference: patent US12698279B2, “Polymorphs of a hydrochloride salt of PN6047” (Pharmnovo AB, priority 2020, dated 2026)
